Like-named read-outs stand apart in the source and are kept apart here.
Columns and labels:
[1] = rat, in vivo, iv
Protocol: The MeP and MeP-NPs were administered via the lateral tail vein at tahe dose of 12.5 (NiTPP, CoTPP, and corresponding NPs at the equivalent dose) and 6.3 mg/kg (MnClTPP and MnClTPP-NPs at the equivalent dose).
Female Wistar rats (body weight 220–240 g) were supplied by Stolbovaya animal facility (Branch of the Scientific Center of Biomedical Technologies of the Federal Medical Biological Agency (Moscow, Russia)). The animals were kept under controlled conditions (temperature of 22 ± 2 °C and relative humidity of 50 ± 10%) with free access to water and standard pellet feed.
The MeP and MeP-NPs pharmacokinetics study was accomplished using randomly divided rat groups (n = 3). Blood samples (50 μL) were collected before injection and after at different time points: 0.25, 0.50, 1.0, 3.0, 6.0, 24.0, and 48.0 h. The blood samples were diluted to 1.0 mL and analyzed with ICP-MS (Agilent 7500C, Agilent Technologies, Tokyo, Japan) [112]. The sample introduction system consisted of a robust Babington nebulizer with a Scott spray chamber (Agilent Technologies, Tokyo, Japan) cooled by a Peltier element (2 °C). The data were acquired and processed with the ICP-MS ChemStation (Agilent Technologies, version G1834B; Santa Clara, CA, USA) software package. The internal standard method was applied in order to take into account the effect of the matrix; Rh was used as internal standard. For dilution of the whole blood samples and standard solution, the mixture of 0.1% Triton X-100–1% HNO3 was used. The same solution was used as the mobile phase of the mass spectrometer.
The pharmacokinetic parameters of MeP were estimated using standard non-compartmental methods [113]. The volume of distribution (Vd), mean residence time (MRT), elimination half-life (t1/2), and area under the plasma concentration–time curve from 0 h to infinity (AUCinf) were determined after intravenous administration of MeP-loaded NPs to animals. All calculations were performed using the PKSolver add-in program for Microsoft Excel [114].

BALB/c female mice = assay: Acute toxicity analysis; type: in vivo; settings: i.v. tail vein, 24 h
Protocol: All experimental procedures with animals (mice and rats) were performed according to the University Ethics Committee for the use of experimental animals and animal studies were carried out as per the guidelines of the European Medicines Agency, Amsterdam, the Netherlands.
MeP and MeP-NP acute toxicity analysis was accomplished using randomly divided mice groups (n = 3). The samples were diluted in PBS and injected (200 μL) via the lateral tail vein. Due to poor water solubility, MePs were preliminarily dissolved in DMSO and Tween 80: the final solution represented 5% v/v DMSO and 2% Tween 80 v/v in PBS. Survival was registered for 24 h after injection.

[2] = MeP loading content and encapsulation efficiency of PLGA NPs (spectrophotometry); type: physicochemical; settings: optimized MeP-loaded PLGA NPs; for MeP loading content (LC): observed data
Protocol: EE and LC calculation is a critical stage in NP analysis, evaluating the MeP amount in NPs’ core. The EE of MeP was determined by dissolving 4 mg of NPs in 4 mL of distilled water followed by centrifugation at 5000× g for 3 min and subsequent lyophilization. The optical density of the sediment and supernatant was assessed at 465 nm for MnClTPP, 433 nm for NiTPP, and 428 nm for CoTPP. The entrapment efficiency of MeP (EE) was calculated according to Equation (9):(9) EE (%)=The mass of MeP in the nanoparticles, mg/The mass of the nanoparticles weight, mg ∗100%
MeP LC corresponded to the optical density of 4 mg of lyophilized NPs in 4 mL of DMSO. Subsequent absorption analysis was performed as indicated earlier and LC calculated according to the following Equation (10): (10) LC (%) = Absorbance∗VDMSO/ε∗msample∗100% where VDMSO is the total volume of suspension containing NPs (L), ε is the extinction coefficient of MeP in DMSO (ε = 116,280 M^−1 cm^−1 for MnClTPP, ε = 36,797 M^−1 cm^−1 for NiTPP, ε = 87,448 M^−1 cm^−1 for CoTPP), and msample is the NPs mass (g).

[3] = In vitro release study of MeP-loaded NPs in PBS pH 7.4 with 0.1% Tween 80; type: physicochemical; settings: for release rate constant kк (Korsmeyer–Peppas model) / release exponent n (Korsmeyer–Peppas model): MeP release from MeP-loaded PLGA NPs; for release rate constant kк (Korsmeyer–Peppas model): PBS pH 7.4, 0.1% Tween 80, 37 °C; for release exponent n (Korsmeyer–Peppas model): less than 0.43 = Fickian diffusion; for duration of the fast (rapid) release phase: biphasic release from MeP-loaded NPs
From the text: We analyzed the release according to the method of Abouelmag et al. using a phosphate-buffered saline (PBS) pH 7.4 containing 0.1% Tween 80 (Figure 8) as a release medium.
We determined the MeP release mechanisms by fitting the data obtained by applying several release kinetic models (Table 7). […] The release exponent values were n = 0.01 for NiTPP, n = 0.06 for CoTPP, and n = 0.11 for MnClTPP, and less than 0.43, indicating Fickian diffusion of MeP [92].
The time-dependent release of MeP was analyzed by dissolving 3 mg of NPs in 1 mL of PBS (0.01 M, pH 7.4) and incubation in a dark glass bottle containing 40 mL of PBS (0.01 M, pH 7.4) and 0.1% (w/v) Tween 80 solution. The probes were kept on a shaker incubator at 90 rpm and 37 °C. Aliquots of 1 mL of media were taken at 0, 0.25, 0.5, 0.75, 1, 1.5, 2, 3, 4, 24, 48, 72, 120, 144, and 192 h and replenished with 1 mL of fresh PBS. The collected aliquots were centrifuged for 3 min at 5000× g at 37 °C. The supernatants were removed and lyophilized as well as the sediments. The amount of MeP released at each time point was calculated as described above according to optical absorption.

[4] = tested on: HeLa, MCF-7, and SK-OV-3 cells; assay: Cytotoxicity, MTT assay; type: cell-based, human; settings: all examined cell lines, 72 h
Protocol: The cancer cell lines HeLa (human cervical carcinoma), MCF-7 (human breast adenocarcinoma), and SK-OV-3 (human ovarian carcinoma) were purchased from the American Type Culture Collection (ATCC, Manassas, VA, USA). Cells were maintained in DMEM medium supplemented with 10% fetal bovine serum and gentamycin (50 μg/mL). Cells were maintained in plastic 25 cm^2 cell culture flasks at 37 °C in a humidified atmosphere containing 5% CO2. HeLa, MCF-7, and SK-OV-3 cells were plated before reaching 80% confluence using trypsin/EDTA solution.
MCF-7, SK-OV-3, and HeLa cells were plated in 96-well plates (5000 cells per well) one day before the experiment and incubated under standard conditions. MeP and MeP-NPs were added in triplets in the concentration range 0.125–100 μM (according to the MeP concentration) and incubated for 2 h. To determine cytotoxicity, cells were treated with AA alone or in combination with MeP in a molar ratio of 1:20 to MeP and then incubated for 72 h. Cell survival was determined using the standard MTT assay. Cell viability was determined as the percent of untreated control. Mean survival values were calculated in Excel (Microsoft Corporation, Redmond, Washington, DC, USA)) and data visualization was performed in OriginPro (version 2020b, OriginLab Corp., Northampton, MA, USA).

[5] = In vitro release study of MeP-loaded NPs in PBS pH 7.4 with 0.1% Tween 80; type: physicochemical; settings: after 180 h

With `C1=Cc2nc1c(-c1ccccc1)c1ccc([n-]1)c(-c1ccccc1)c1nc(c(-c3ccccc3)c3ccc([n-]3)c2-c2ccccc2)C=C1.[Co+2]` [CoTPP] the AUCinf ([1]; 12.5 mg/kg) was 60,370 ± 18,111 (µg/mL) (h), the MRT ([1]; 12.5 mg/kg) was 27 ± 7 h and the Vd ([1]; 12.5 mg/kg) was 0.003 ± 0.001 L/kg. The t1/2 ([1]; 12.5 mg/kg) was 17 ± 4 h, the “Mice Survived” value (BALB/c female mice; 6.25 mg/kg) was 3/3 and the “Mice Survived” value (BALB/c female mice; 12.5 mg/kg) was 3/3. The “Mice Survived” value (BALB/c female mice; 25 mg/kg) was 2/3, the “Mice Survived” value (BALB/c female mice; 50 mg/kg) was 0/3 and the “encapsulation efficiency (EE)” value [2] was 79.7%. For the same compound, the “MeP loading content (LC)” value [2] was 8.7%, the “release rate constant kк (Korsmeyer–Peppas model)” value (shortened to “release rate constant kк”) [3] was 74.3 h⁻¹ and the “release exponent n (Korsmeyer–Peppas model)” value (“release exponent n” below) [3] was 0.06. The “duration of the fast (rapid) release phase” value (“duration of the fast” below) [3] was 30 min.

For `O=C1O[C@H]([C@@H](O)CO)C(O)=C1O` [AA, ascorbic acid], the “cytotoxicity alone, without combination (in words)” value [4] was “lacked cell growth inhibition”.

For `C1=Cc2nc1c(-c1ccccc1)c1ccc([n-]1)c(-c1ccccc1)c1nc(c(-c3ccccc3)c3ccc([n-]3)c2-c2ccccc2)C=C1.[Ni+2]` [NiTPP], the AUCinf ([1]; 12.5 mg/kg) was 612 ± 184 (µg/mL) (h), the MRT ([1]; 12.5 mg/kg) was 25 ± 6 h and the Vd ([1]; 12.5 mg/kg) was 2.683 ± 0.805 L/kg. For the same compound, the t1/2 ([1]; 12.5 mg/kg) was 19 ± 6 h, the “Mice Survived” value (BALB/c female mice; 6.25 mg/kg) was 3/3 and the “Mice Survived” value (BALB/c female mice; 12.5 mg/kg) was 3/3. For the same compound, the “Mice Survived” value (BALB/c female mice; 25 mg/kg) was 1/3, the “Mice Survived” value (BALB/c female mice; 50 mg/kg) was 0/3 and the “MeP loading content (LC)” value [2] was 11.1%. The “release rate constant kк” value [3] was 91.3 h⁻¹, the “release exponent n” value [3] was 0.01 and the “duration of the fast” value [3] was 30 min.

In the case of `C1=Cc2nc1c(-c1ccccc1)c1ccc([n-]1)c(-c1ccccc1)c1nc(c(-c3ccccc3)c3ccc([n-]3)c2-c2ccccc2)C=C1.[Cl-].[Mn+3]` [MnClTPP, MnCl3-tetraphenylporphyrin chloride], the AUCinf ([1]; 6.3 mg/kg) is reported as 15,362 ± 5377 (µg/mL) (h), the MRT ([1]; 6.3 mg/kg) is reported as 62 ± 21 h and the Vd ([1]; 6.3 mg/kg) is reported as 0.013 ± 0.004 L/kg. The t1/2 ([1]; 6.3 mg/kg) was 44 ± 14 h, the “Mice Survived” value (BALB/c female mice; 6.25 mg/kg) was 3/3 and the “Mice Survived” value (BALB/c female mice; 12.5 mg/kg) was 3/3. The “Mice Survived” value (BALB/c female mice; 25 mg/kg) was 3/3, the “Mice Survived” value (BALB/c female mice; 50 mg/kg) was 2/3 and the “encapsulation efficiency (EE)” value [2] was 79.9%. For the same compound, the “MeP loading content (LC)” value [2] was 28.9%, the “release rate constant kк” value [3] was 49.4 h⁻¹ and the “release exponent n” value [3] was 0.11. For the same compound, the “duration of the fast” value [3] was 15 min and the “MeP released from NPs” value [5] was 80%.
